Assay results: patent US20060293381A1, “Fungicidal effect by regulating signal transduction pathways” (priority 2005, published 2006)
Entries after “also recorded” stand apart in the source; their conditions may differ. Like-named read-outs stand apart in the source and are kept apart here.

Assays:
C. neoformans [1] = type: cell-based, Cryptococcus neoformans
Description: (§1) FIG. 1: [A] Treatment of multiple strains of C. neoformans serotype A H99 with fludioxonil (1 ug ml^−1 and 10 ug ml^−1), calcineurin inhibitor FK506, and FK506+Fludioxonil (1 ug ml^−1). [B] Measurement of cell density of multiple strains of C. neoformans representing relative cell growth after incubation of C. neoformans in culture for 72 hours in various fludioxonil concentrations. The following serotype A strains were used for this assay: WT (H99) (♦), and cna1Δ (▴), hog1Δ (□) and cna1Δ hog1Δ (∘) mutant strains. [C] Measurement of WT H99, hog1Δ, and cna1Δ mutants grown for 48 hours exposed to disks containing 10 ug (Fludiox10), 50 ug (Fludiox50), or 100 ug (Fludiox100) of fludioxonil; 2 ug (FK5062) or 20 ug (FK50620) of FK506; 5 ul of 100% ethanol (ETOH) and dimethyl sulfoxide (DMSO).
Additionally, the fractional inhibitory concentration (FIC) was calculated to determine the FIC index, of which a value <1·0 denotes a synergistic interaction.

C. neoformans [2] = experiment: NCCLS drug susceptibility assay in liquid medium (MIC80, FIC index, cell density); type: cell-based, Cryptococcus neoformans
Description: as §1
To quantitatively measure fludioxonil sensitivity, we performed drug susceptibility assays according to NCCLS criteria using a range of fludioxonil concentrations (5 ng ml^−1 to 10 ug ml^−1) to determine the minimum inhibitory concentration (MIC). In this assay, the MIC80 of fludioxonil for the WT strain was <5 ug ml^−1 whereas the MIC80 for the cna1Δ mutant was <100 ng ml^−1 (FIG. 1B and Table 1).

C. neoformans [3] = experiment: Fungal growth on YPD agar containing the drug; type: cell-based, Cryptococcus neoformans
Description: To investigate whether C. neoformans is sensitive to fludioxonil, fungal growth was tested on YPD agar containing the drug. […] To elucidate the role of the HOG pathway in fludioxonil sensitivity, we tested the sensitivity of hog1Δ and pbs2Δ mutants that had been constructed before (Y S Bahn et al., Mol. Biol. Cell. (2005) 16: 2285-2300). […] To examine whether phosphorylation and kinase activity of Hog1 MAPK are required to confer fludioxonil sensitivity, we tested the sensitivity of cells expressing site-directed mutants of Hog1 at the phosphorylation sites (hog1+HOG1^T171A+Y173A) or the catalytic site (hog1+HOG1^K49S+K50N) (FIG. 1A).
(§2) Two C. neoformans serotypes were tested for sensitivity to fludioxonil at 1 μg/ml and 10 μg/ml to determine whether fludioxonil sensitivity is differentially regulated between the two strains and if it is controlled by the HOG pathway. […] S. cerevisiae is resistant to fludioxonil and was used as a control. Thus differential sensitivity to fludioxonil was seen between the two WT serotypes. The hog1Δ mutation in the serotype D strain JEC21 was resistant to fludioxonil, similar to WT JEC21 (FIG. 2). The hog1Δ mutation in the serotype A strain H99 background, however, was resistant to fludioxonil, unlike WT H99 (FIG. 2). This indicates a critical role for the Hog1 pathway in fludioxonil sensitivity.
To determine whether the differential fludioxonil sensitivity observed between the serotype A strain H99 and the serotype D strain JEC21 results from serotype- or strain-specific differences, fludioxonil sensitivity in multiple serotype A and D clinical and environmental strains was investigated. The Hog1 phosphorylation pattern after a 1 hour exposure to fludioxonil was monitored.

S. cerevisiae = experiment: Fungal growth on agar containing fludioxonil (control species); type: cell-based
Description: FIG. 2: Differential fungicidal sensitivity between C. neoformans serotype A strain H99 and serotype D strain JEC21. WT indicates wildtype cells; hog1 indicates a mutant Hog1 gene hog1Δ. S. cerevisiae is used as a control.
as §2

C. neoformans [4] = experiment: Minimal fungicidal concentration (MFC), NCCLS criteria; type: cell-based; settings: Cryptococcus neoformans; WT strain; fludioxonil alone
From the text: To determine whether fludioxonil is fungicidal or fungistatic to C. neoformans, minimal fungicidal concentrations (MFCs) were investigated in accordance with the NCCLS criteria (Table 2).

Hog1 MAPK = experiment: Hog1 phosphorylation pattern by Western Blot; type: cell-based, Cryptococcus neoformans
From the text: (§3) FIG. 3: Measurements of Hog1 MAPK activation by rapid dephosphorylation in response to fludioxonil in C. neoformans. Measurements of phosphorylated Hog1 (P-Hog1) and unphosphorylated Hog1 (Hog1) are shown in C. neoformans serotype A strain H99 (H99 WT), H99 cna1Δ, serotype D strain JEC21 (JEC21 WT), and S. cerevisiae. The dual phosphorylation status of Hog1 (T171 and Y173) was monitored using antibody specific for dual phosphorylation of p38 MAPK (P-Hog1). The same blot was stripped and then probed with polyclonal anti-Hog1 antibody as a loading control (Hog1).
FIG. 4: Measurements of fludioxonil sensitivity and Hog1 phosphorylation patterns in response to fludioxonil in various clinical and environmental serotype A [A] and serotype D [B] isolates. Measurements of phosphorylated Hog1 (P-Hog1) and unphosphorylated Hog1 (Hog1) were done using Western Blot analysis.
(§4) To determine how Hog1 is regulated in response to fludioxonil in C. neoformans, Hog1 phosphorylation patterns were monitored by Western Blot analysis in response to fludioxonil. When the serotype A strain H99 was exposed to 1 or 10 ug ml^−1 fludioxonil ml^−1, Hog1 was dephosphorylated within 15 minutes and its dephosphorylation status was maintained for 3 hours (FIG. 3). […] On the other hand, in the serotype D strain JEC21 Hog1 was only slightly phosphorylated under normal conditions, only minimally further phosphorylated if at all after 15 minutes of exposure to fludioxonil, and subsequently maintained in an unphosphorylated state for up to 3 hours (FIG. 3). In contrast, Hog1 was rapidly phosphorylated in response to osmotic shock in strain JEC21.

Hog1 = Hog1 phosphorylation pattern by Western Blot; type: cell-based; settings: S. cerevisiae
From the text: as §3, §4

C. neoformans [5] = experiment: Microscopic observation of cell morphology after fludioxonil; type: cell-based, Cryptococcus neoformans
Description: (§5) FIG. 6: [A] Measurements of morphological changes in response to fludioxonil treatment (10 ug ml^−1 for 48 hours) in serotype A H99 WT [A-b], cna1Δ [A-c], and hog1Δ [A-d]. As a control, serotype A H99 WT was grown without fludioxonil [A-a]. Cells were then observed by microscopy (bar=20 um). [B] Measurements of glycerol content in cell extracts in response to fludioxonil treatment in serotype A WT strain H99, cna1Δ, hog1Δ, and the serotype D WT strain JEC21. Cells were grown to mid-exponential phase and then incubated in 10 ug fludioxonil ml^−1 for the time indicated. Glycerol content in cell extracts was measured by a UV-glycerol assay procedure and normalized to dry cell weight. Two individual experiments were performed and standard deviations are presented as error bars.
We microscopically observed cells after exposure to fludioxonil. […] As expected, the morphology of JEC21 cells was not affected by fludioxonil.

C. neoformans [6] = experiment: Glycerol content in cell extracts (UV-glycerol assay); type: cell-based, Cryptococcus neoformans
Description: as §5
We measured the glycerol content in C. neoformans after fludioxonil treatment for 1 and 3 hours (FIG. 6B). […] Increased intracellular glycerol levels may trigger non-physiological levels of water influx into the cell, resulting in cell swelling and growth inhibition. […] Alternatively, the cna1Δ mutant cells could be rapidly killed by Hog1 activation prior to accumulating glycerol, because fludioxonil has a fungicidal effect on the cna1Δ mutant (Table 1).

[7] = WT strain H99, fludioxonil disk 100 ug
[8] = serotype A strain H99, 1 or 10 ug ml^−1 fludioxonil

## C=CC[C@@H]1/C=C(\C)C[C@H](C)C[C@H](OC)[C@H]2O[C@@](O)(C(=O)C(=O)N3CCCC[C@H]3C(=O)O[C@H](/C(C)=C/[C@@H]3CC[C@@H](O)[C@H](OC)C3)[C@H](C)[C@@H](O)CC1=O)[C@H](C)C[C@@H]2OC [FK506]
C. neoformans [1]; [7]
  halo / growth inhibition around disk: not inhibited

## N#Cc1c[nH]cc1-c1cccc2c1OC(F)(F)O2 [fludioxonil, 4-(2,2-difluoro-1,3-benzodioxol-4-yl)pyrrole-3-carbonitrile]
C. neoformans [2]; Cryptococcus neoformans, WT strain, read-out: MIC80
  MIC80: < 5 µg/mL
C. neoformans [2]; cna1Δ hog1Δ double mutant
  fludioxonil sensitivity (cell growth, FIG. 1B): complete resistance
C. neoformans [2]; cna1Δ mutant
  MIC80: < 0.1 µg/mL
C. neoformans [2]; hog1Δ and cna1Δ hog1Δ mutants, even with 10 ug fludioxonil ml^−1
  growth in liquid culture: modest reduction of growth, but still showed robust resistance
C. neoformans [3]; 12 independently derived AD hybrid strains
  fludioxonil sensitivity: resistance similar to the parental strain JEC171
C. neoformans [3]; WT serotype D strain JEC21, 1 μg/ml and 10 μg/ml
  growth on agar containing drug: complete resistance
C. neoformans [3]; cna1Δ and cnb1Δ mutants (H99 background)
  growth on agar containing drug: hypersensitivity
C. neoformans [3]; hog1+HOG1^T171A+Y173A and hog1+HOG1^K49S+K50N site-directed mutants
  growth on agar containing drug: as resistant to fludioxonil as the hog1Δ mutant
C. neoformans [3]; hog1Δ mutant (H99 background)
  growth on agar containing drug: complete resistance; also recorded: resistant
C. neoformans [3]; hog1Δ mutation in serotype D strain JEC21
  growth on agar containing drug: resistant
C. neoformans [3]; mpk1Δ mutant
  fludioxonil sensitivity: hypersensitivity
C. neoformans [3]; mpk1Δ, mkk1Δ, bck1Δ mutants, supplementation with 1M sorbitol
  growth defect in response to fludioxonil with osmotic stabilizer: partially rescued the growth defect
C. neoformans [3]; mutants lacking MKK1 and BCK1 genes
  fludioxonil sensitivity: hypersensitivity
C. neoformans [3]; parental serotype A H99 (ura5)
  fludioxonil sensitivity: sensitivity
C. neoformans [3]; parental serotype D JEC171 (ade2 lys2)
  fludioxonil sensitivity: resistance
C. neoformans [3]; pbs2Δ mutant (H99 background)
  growth on agar containing drug: complete resistance
C. neoformans [3]; serotype A clinical and environmental strains
  strains sensitive to fludioxonil: 8 of 10
C. neoformans [3]; serotype A strains IN-38 and UG-20020, serotype D strains NIH433, JEC21, MMRL757
  fludioxonil sensitivity: clear resistance
C. neoformans [3]; serotype A wild-type (WT) strain H99, fludioxonil 1 and 10 ug ml^−1
  growth on agar containing drug: severely inhibited growth; also recorded: sensitivity
C. neoformans [3]; serotype D clinical and environmental strains
  strains sensitive to fludioxonil: 6 of 9
S. cerevisiae
  growth on agar containing drug: resistant
C. neoformans [1]; [7]
  halo / growth inhibition around disk: only modest growth inhibition
C. neoformans [1]; cna1Δ strain, disks with 10, 50, or 100 ug fludioxonil
  halo / growth inhibition around disk: large haloes
C. neoformans [4]
  MFC: > 10 µg/mL
Hog1 MAPK; cna1Δ mutant, 1 ug or 10 ug fludioxonil ml^−1
  Hog1 phosphorylation pattern: almost identical to that observed in the wild-type strain
Hog1 MAPK; resistant clinical/environmental strains, 1 hour incubation
  Hog1 activation in response to fludioxonil: not activated
Hog1 MAPK; [8]
  Hog1 dephosphorylation status maintained: 3 h
  time to Hog1 dephosphorylation: ≤ 15 min
Hog1 MAPK; serotype D strain JEC21
  Hog1 activation in response to fludioxonil: only minimally activated, if at all
Hog1
  Hog1 activation in response to fludioxonil: completely inactive
C. neoformans [5]; JEC21 cells
  cell morphology: not affected
C. neoformans [5]; WT H99, 10 ug ml^−1 for 48 hours
  cell morphology: some cells were swollen, and interestingly were often attached to each other
C. neoformans [5]; cna1Δ mutant, 10 ug ml^−1 for 48 hours
  cell morphology: even more severe cytokinesis defect
C. neoformans [5]; hog1Δ mutant, 10 ug ml^−1 for 48 hours
  cell morphology: no swollen morphology or defects in cell division
C. neoformans [6]; WT strain H99, 10 ug fludioxonil ml^−1, 1 and 3 hours
  glycerol content: increased after 1 hour exposure, and to an even greater extent after 3 hour incubation
C. neoformans [6]; cna1Δ mutant, 10 ug fludioxonil ml^−1, 1 and 3 hours
  glycerol content: increased following 1 hour treatment with fludioxonil but accumulation levels at 3 hours were lower than those of the WT
C. neoformans [6]; hog1Δ mutant, 10 ug fludioxonil ml^−1, 1 and 3 hours
  glycerol content: no increase in glycerol
C. neoformans [6]; serotype D strain JEC21, 10 ug fludioxonil ml^−1
  glycerol content: little or no glycerol
